Read-outs that look alike come from different tables or passages of the source.
Tests used:
12-lipoxygenase = molecular target: T1, 12-lipoxygenase (Oryctolagus cuniculus, UniProt G1U492); experiment: Inhibition of the metabolism of 14C-arachidonate in the blood platelets of rabbits: 12-lipoxygenase route (12-HETE); format: cell-based; conditions: rabbit blood platelets; for IC50 / IC50 in the blood platelets, 12 HETE: 12 HETE, n.i. = no inhibition
T1 construct: metabolism of ^14 C-Arachidonate in the blood platelets of rabbits; endogenous in cells; host or cells: washed rabbit blood platelets (from platelet-rich plasma)
T1 sequence (G1U492 1-663): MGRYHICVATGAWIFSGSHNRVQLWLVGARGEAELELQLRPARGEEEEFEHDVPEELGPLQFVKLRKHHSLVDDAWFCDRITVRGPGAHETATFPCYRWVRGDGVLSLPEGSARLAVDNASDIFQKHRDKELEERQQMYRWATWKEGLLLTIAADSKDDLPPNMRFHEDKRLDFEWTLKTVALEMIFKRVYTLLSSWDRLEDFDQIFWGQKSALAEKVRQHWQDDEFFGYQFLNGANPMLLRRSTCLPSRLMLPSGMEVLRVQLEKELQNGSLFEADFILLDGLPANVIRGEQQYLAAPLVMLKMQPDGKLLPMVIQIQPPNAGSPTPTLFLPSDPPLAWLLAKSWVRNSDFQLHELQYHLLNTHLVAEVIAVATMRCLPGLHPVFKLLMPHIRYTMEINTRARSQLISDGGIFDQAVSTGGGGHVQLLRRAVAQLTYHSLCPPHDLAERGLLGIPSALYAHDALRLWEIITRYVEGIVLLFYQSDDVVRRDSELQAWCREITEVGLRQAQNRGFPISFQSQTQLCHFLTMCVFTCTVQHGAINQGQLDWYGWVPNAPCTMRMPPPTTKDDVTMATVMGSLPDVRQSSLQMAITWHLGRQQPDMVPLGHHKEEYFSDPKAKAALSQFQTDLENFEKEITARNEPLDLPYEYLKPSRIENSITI
Method: (§1) 1.2. Inhibition of the metabolism of
(§2) ^14 C-Arachidonate in the blood platelets of rabbits
(§3) Preparation of a platelet-rich plasma (PRP)
(§4) A 12 ml blood sample is taken, by the intracardiac route, on ACD (anticoagulant consisting of an aqueous solution containing 0.27 g citric acid, 0.5 g disodium citrate and 0.02 g glucose per 20 ml water), at a rate of 1 volume ACD per 6 volumes blood. The blood is centrifuged at 200 g for 10 minutes and the supernatant (PRP) is collected. It is again centrifuged at 1500 g for 15 minutes. The blood-platelet sediment is washed with Buffer I (NaCl: 8 g/l, Tris: 1.21 g/l, KCl: 0.2 g/l, Gelatin: 2.5 g/l; the material is heated at 90° C. to dissolve the gelatin, after which are added glucose: 1 g/l, and N,N'-ethyleneglycol bis(β-aminoethyl ether,)tetraacetic acid or EGTA: 0.075 g/l). The suspension is centrifuged at 1500 g for 10 minutes, and the sediment is taken up into Buffer II (NaCl: 8 g/l, Tris: 1.21 g/l, KCl: 0.2 g/l, CaCl2 : 0.145 g/l, MgCl2 0.2 g/l, gelatin: 2.5 g/l; this material is heated to 90° C., after which glucose (1 g/l) is added, and the pH is adjusted to a value of 7.4 with 0.1 N HCl),
(§5) Metabolism of ^14 C-Arachidonate
(§6) The blood-platelet suspension (0.4 ml/tube) is pre-incubated at 37° C. for 15 minutes, either with 10 μl DMSO (reference), or with varying concentrations of products to be treated dissolved in 10 μl DMSO.
(§7) The incubation is effected in the presence of ^14 C-Arachidonate (1 μg, 0.2 μCi) distributed within 0.1 ml Buffer II. It is blocked after 15 minutes by means of 50 μl citric acid and 250 μl saturated NaCl.

edema of the ear in rats = experiment: Cutaneous anti-inflammatory activity: inhibition of the edema of the ear in rats following topic administration; format: in vivo; conditions: rat ear edema, topical
Method: Cutaneous anti-inflammatory activity determined by the inhibition of the edema of the ear in rats following topic administration. This activity is determined by means of the method according to G. Tonelli and co-workers (Endocrinology, 1965, 77, 625-634). The effect of various concentrations of each compound is determined in at least seven rats. Inflammation is inhibited by a factor of 50% at the following concentrations: […]

15 HETE = experiment: Metabolism of 14C-arachidonate in rabbit peritoneal PMNs: 15 HETE; format: cell-based; conditions: 15 HETE formation, n.i. = no inhibition
Method: (§8) Preparation of a suspension of rabbit PMNs
(§9) The peritoneal leukocytes of rabbits are obtained and prepared according to the technique described by P. Borgeat and B. Samuelson (J. Biol. Chem. 254, n° 8, p. 2643, 1979).
as §5
(§10) The incubation and extraction methods are those described by J. Y. Vanderhoek & co-workers (J. Biol. Chem. […], 21, 10064, 1980).
(§11) The percent inhibition of the 5-lipoxygenase is determined as a function of the concentration of each compound. The concentration of product that inhibits the metabolism by a factor of 50% (IC50) is inferred from those curves.

prostanoids = experiment: Inhibition of the metabolism of 14C-arachidonate in the blood platelets of rabbits: prostanoids route (TxB2, HHT); format: cell-based; conditions: rabbit blood platelets
Method: as §1, §2, §3, §4, §5, §6, §7

[1] = molecular target: T2, 5-lipoxygenase of the peritoneal leukocytes of rabbits (PMNs) (Oryctolagus cuniculus, UniProt G1SNX0); experiment: Inhibition of the 5-lipoxygenase of the peritoneal leukocytes of rabbits (PMNs), metabolism of 14C-arachidonate; format: cell-based; conditions: rabbit peritoneal PMNs; for IC50 / IC50 in the PMNs, 5 HETE / IC50 in the PMNs, LTB4: n.i. = no inhibition
T2 construct: metabolism of ^14 C-AA in the peritoneal PMNs of rabbits; endogenous in cells; host or cells: rabbit peritoneal polymorphonuclear leukocytes (suspension)
T2 sequence (G1SNX0 1-674): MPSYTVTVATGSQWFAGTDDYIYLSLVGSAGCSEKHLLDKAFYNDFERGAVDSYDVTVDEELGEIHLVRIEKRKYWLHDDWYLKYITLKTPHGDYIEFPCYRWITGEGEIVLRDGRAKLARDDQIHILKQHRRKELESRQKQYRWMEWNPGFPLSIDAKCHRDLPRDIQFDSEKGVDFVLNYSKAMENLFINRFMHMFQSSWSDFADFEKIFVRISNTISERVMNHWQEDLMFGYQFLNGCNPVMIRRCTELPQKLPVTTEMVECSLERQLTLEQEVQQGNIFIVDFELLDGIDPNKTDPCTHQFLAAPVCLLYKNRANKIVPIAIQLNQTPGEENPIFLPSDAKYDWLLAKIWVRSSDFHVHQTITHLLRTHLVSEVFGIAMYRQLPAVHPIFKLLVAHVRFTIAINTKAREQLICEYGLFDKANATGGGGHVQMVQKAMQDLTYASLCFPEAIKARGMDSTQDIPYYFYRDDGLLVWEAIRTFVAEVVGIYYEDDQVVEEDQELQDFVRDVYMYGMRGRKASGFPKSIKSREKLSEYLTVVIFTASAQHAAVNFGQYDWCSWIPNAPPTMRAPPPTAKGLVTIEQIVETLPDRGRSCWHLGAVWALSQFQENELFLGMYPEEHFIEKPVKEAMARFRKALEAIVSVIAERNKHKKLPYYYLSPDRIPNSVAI
Method: 1.1. Inhibition of the 5-lipoxygenase of the peritoneal leukocytes of rabbits (PMNs)
as §8, §9, §5, §10, §11

[2] = Acute toxicity, intraperitoneal route; conditions: mouse, in vivo, ip, in DMSO, 14 days observation, with confidence interval
Method: The test animals used are Swiss mice (NMRI-Han). The average weight of the male animals is 30 g, that of the females is 25 g.
The acute toxicity investigation was conducted by the intraperitoneal route.
The compounds, dissolved in DMSO, are injected under the ventral side of the peritoneum, at increasing dosages.
The reference group is administered DMSO under the same conditions (2.5 ml.kg^-1).
Following Table III gives the values of the 50% lethal dosages together with the […].

[3] = tested on: leukocytic infiltration in the aqueous humor; conditions: in vivo; cited from earlier work
[4] = Oryctolagus cuniculus, Platelet, HHT, read-out: IC50 in the blood platelets, HHT
[5] = thromboxane B2, read-out: IC50 in the blood platelets, T × B2
[6] = 5 HETE formation, read-out: IC50 in the PMNs, 5 HETE
[7] = LTB4 formation, read-out: IC50 in the PMNs, LTB4
[8] = HHT, read-out: IC50 in the blood platelets, HHT
[9] = Oryctolagus cuniculus, Platelet, thromboxane B2, read-out: IC50 in the blood platelets, T × B2

SMILES	IC50 (prostanoids; [4])	IC50 (12-lipoxygenase)	IC50 [1, 6]	IC50 [1, 7]	IC50 (prostanoids; [9])	IC50 (prostanoids; [5])	IC50 (prostanoids; [8])	other results
CC(=O)Oc1ccccc1C(=O)O [Aspirin]	–	–	–	–	–	–	–	inhibition of the 12-lipoxygenase route (chromatographic profile, FIG. 3b) (12-lipoxygenase): does not inhibit the 12-lipoxygenase route; concentration at which inflammation is inhibited by a factor of 50% (edema of the ear in rats; at least seven rats): 70 mg/mL; concentration at which inflammation is inhibited by a factor of 50% (edema of the ear in rats; molar value in parentheses): 233 µmol/mL
C[C@@H]1C[C@H]2[C@@H]3CCC4=CC(=O)C=C[C@]4(C)[C@@]3(F)[C@@H](O)C[C@]2(C)[C@@]1(O)C(=O)CO [Dexamethasone]	–	–	–	–	–	–	–	concentration at which inflammation is inhibited by a factor of 50% (edema of the ear in rats; at least seven rats): 1 mg/mL; concentration at which inflammation is inhibited by a factor of 50% (edema of the ear in rats; molar value in parentheses): 2.5 µmol/mL
CCOC(=O)CCCC(C)=NNc1nccs1 [Example 1]	> 50 µM	> 50 µM	< 2 µM	< 2 µM	–	> 50 µM	–	IC50 (15 HETE; Oryctolagus cuniculus): > 50 µM
CCOC(=O)CCCC(C)=NNc1nccs1 [Example 1a]	–	–	–	13 µM	–	12 µM	50 µM	IC50 in the blood platelets, 12 HETE (12-lipoxygenase): n.i.
CC(=NNc1nccs1)c1cccs1 [Example 3]	–	3 µM	18 µM	7 µM	–	50 µM	20 µM	IC50 in the PMNs, 15 HETE (15 HETE): n.i.
CC(=NNc1nccs1)c1cccs1 [Example 3a]	–	30 µM	15 µM	–	–	13 µM	21 µM	IC50 (15 HETE; Oryctolagus cuniculus): 40 µM
CC(=NNc1nccs1)c1cccs1 [Example 3b]	–	10 µM	10 µM	13 µM	–	10 µM	> 50 µM	LD50 at 336 h ([2]; female Swiss mice, read-out: Parenteral LD50, female mice): 155 ± 32 mg/kg; LD50 at 336 h ([2]; male Swiss mice, read-out: Parenteral LD50, male mice): 105 ± 24 mg/kg; IC50 (15 HETE): 40 µM; inhibition of the metabolism of the 5-lipoxygenase route (chromatographic profile, FIG. 2b) ([1]; 50 μM): inhibition of the metabolism of the 5-lipoxygenase route; concentration at which inflammation is inhibited by a factor of 50% (edema of the ear in rats; at least seven rats): 16 mg/mL; concentration at which inflammation is inhibited by a factor of 50% (edema of the ear in rats; molar value in parentheses): 57 µmol/mL
CC(=NNc1nccs1)c1cccs1 [Example 3d]	–	22 µM	< 2 µM	2 µM	–	10 µM	50 µM	IC50 in the PMNs, 15 HETE (15 HETE): n.i.
CC(Cn1ccnc1)=NNc1nccs1 [Example 4]	> 50 µM	> 50 µM	–	–	> 50 µM	–	–	IC50 (15 HETE; Oryctolagus cuniculus): 2 µM; IC50 in the PMNs, 5 HETE ([1]; 5 HETE formation): n.i.; IC50 in the PMNs, LTB4 ([1]; LTB4 formation): n.i.
c1ccc2c(c1)CCCC2=NNc1nccs1 [Example 7]	16 µM	40 µM	6 µM	8 µM	10 µM	–	–	IC50 (15 HETE; Oryctolagus cuniculus): 2 µM
CC(=NNc1nccs1)c1ccccc1N [Example 15]	25 µM	–	< 25 µM	< 25 µM	< 25 µM	–	–	IC50 in the blood platelets, 12 HETE (12-lipoxygenase): n.i.
O=C(O)c1cc(=NNc2nccs2)c2ccccc2o1 [Example 20]	20 µM	–	–	–	15 µM	–	–	IC50 in the blood platelets, 12 HETE (12-lipoxygenase): n.i.; IC50 in the PMNs, 5 HETE ([1]; 5 HETE formation): n.i.; IC50 in the PMNs, LTB4 ([1]; LTB4 formation): n.i.
NC(=NNc1ccccc1)c1ccccc1 [Example 21]	10 µM	–	20 µM	10 µM	10 µM	–	–	IC50 in the blood platelets, 12 HETE (12-lipoxygenase): n.i.
CN1CCN(C(=NNc2ccccc2)c2ccccc2)CC1 [Example 23]	25 µM	25 µM	25 µM	25 µM	25 µM	–	–	–
COc1ccc2c(c1)c(CC(=O)O)c(C)n2C(=O)c1ccc(Cl)cc1 [Indomethacin]	–	–	–	–	–	–	–	leukocytic infiltration in the aqueous humor [3]: increases leukocytic infiltration in the aqueous humor; concentration at which inflammation is inhibited by a factor of 50% (edema of the ear in rats; at least seven rats): no inhibition
C[C@H](Cc1ccc(O)c(O)c1)[C@@H](C)Cc1ccc(O)c(O)c1 [NDGA, Nordihydroguaiaretic acid]	–	–	–	–	–	–	–	concentration at which inflammation is inhibited by a factor of 50% (edema of the ear in rats; at least seven rats): 12.5 mg/mL; concentration at which inflammation is inhibited by a factor of 50% (edema of the ear in rats; molar value in parentheses): 41 µmol/mL

The next lines start with results.

IC50 (prostanoids; [4])	IC50 (12-lipoxygenase)	IC50 [1, 6]	IC50 [1, 7]	IC50 (prostanoids; [9])	SMILES	IC50 (prostanoids; [5])	IC50 (prostanoids; [8])	other results
> 50 µM	14 µM	10 µM	2 µM	10 µM	CC(=NNc1nccs1)c1ccco1 [Example 3c]	–	–	IC50 (15 HETE; Oryctolagus cuniculus): > 50 µM
–	–	5 µM	–	–	c1ccc2c(c1)CCCC2=NNc1nccs1 [Example 7a]	5 µM	15 µM	IC50 (15 HETE): 2 µM; IC50 in the blood platelets, 12 HETE (12-lipoxygenase): n.i.

— patent US4656184A, “2-(N-substituted hydrazone), thiazoles useful as anti-inflammatories” (priority 1982, dated 1987)
